Laboratory results published in ChEMBL document CHEMBL1201862, “PubChem BioAssay data set” (2004).
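Assay format: 96-well plates, 48-hour exposure. GI50 = concentration required for 50% inhibition of growth.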 Active and inactive are the calls of the source. Rule as the data show it: active = GI50 up to about 1.1 µM and inactive = higher.

How the values were obtained:
Experiment in all cases: NCI-60 cell line screen, 48 h
[1] = tested on: HCT-116
[2] = tested on: HCT-15
[3] = tested on: HL-60
[4] = tested on: K562
[5] = tested on: KM12
[6] = tested on: MDA-MB-231
[7] = tested on: MOLT-4
[8] = tested on: NCI-H23
[9] = tested on: PC-3
[10] = tested on: RXF 393
[11] = tested on: SF-295
[12] = tested on: SK-MEL-2
[13] = tested on: SN12C
[14] = tested on: SNB-19
[15] = tested on: SR
[16] = tested on: UO-31
[17] = tested on: OVCAR-4
[18] = tested on: SF-539
[19] = tested on: SK-OV-3
[20] = tested on: KM-20L2

Structure (SMILES) | GI50 [1] | GI50 [2] | GI50 [3] | GI50 [4] | GI50 [5] | GI50 [6] | GI50 [7] | GI50 [8] | GI50 [9] | GI50 [10] | GI50 [11] | GI50 [12] | GI50 [13] | GI50 [14] | GI50 [15] | GI50 [16] | GI50 [17] | GI50 [18] | GI50 [19] | GI50 [20]
CN1C2CCC1CC(C)(O)C2 (centres undefined) | > 100 µM (inactive) | > 100 µM | > 100 µM (inactive) | > 100 µM (inactive) | > 100 µM (inactive) | > 100 µM (inactive) | > 100 µM (inactive) | > 100 µM (inactive) | > 100 µM (inactive) | > 100 µM (inactive) | > 100 µM (inactive) | > 100 µM (inactive) | > 100 µM (inactive) | > 100 µM (inactive) | > 100 µM (inactive) | > 100 µM (inactive) | – | – | – | –
O=C(c1ccco1)C1CC(c2c(O)ccc3ccccc23)=NN1 (centres undefined) | – | 19 µM | 13.5 µM (inactive) | 12.4 µM (inactive) | 11.4 µM (inactive) | 13.2 µM (inactive) | 12.1 µM (inactive) | 17.1 µM (inactive) | 8.79 µM (inactive) | 17.4 µM (inactive) | 11.2 µM (inactive) | 16.6 µM (inactive) | 20.1 µM (inactive) | 16.4 µM (inactive) | 2.72 µM (inactive) | 11.1 µM (inactive) | 25.4 µM (inactive) | 13.1 µM (inactive) | 21 µM (inactive) | –
COc1ccc(/C=C2\CC3C4CC=C5C[C@@H](O)CC[C@]5(C)C4CC[C@]3(C)\C2=N\O)cc1OC (some centres undefined) | 5.14 µM (inactive) | 4.32 µM | 11.2 µM (inactive) | 4.98 µM (inactive) | 7.5 µM (inactive) | 16.2 µM (inactive) | 5.37 µM (inactive) | 9.71 µM (inactive) | 6.03 µM (inactive) | 7.73 µM (inactive) | 4.13 µM (inactive) | 7.57 µM (inactive) | 15.7 µM (inactive) | 70.6 µM (inactive) | – | 2.65 µM (inactive) | 5.02 µM (inactive) | 7.26 µM (inactive) | 49.3 µM (inactive) | –
COC(=O)c1ccc(/C=C2\N=C(C)OC2=O)cc1 | > 100 µM (inactive) | > 100 µM | > 100 µM (inactive) | > 100 µM (inactive) | > 100 µM (inactive) | – | > 100 µM (inactive) | > 100 µM (inactive) | – | – | > 100 µM (inactive) | – | > 100 µM (inactive) | > 100 µM (inactive) | – | – | > 100 µM (inactive) | > 100 µM (inactive) | > 100 µM (inactive) | > 100 µM (inactive)
COC(=O)C1(Cc2ccccc2)Cc2cc3c(cc2C1)CCC3 | 22 µM (inactive) | 28.4 µM | 14.1 µM (inactive) | 17 µM (inactive) | 22.3 µM (inactive) | 45.3 µM (inactive) | 15.5 µM (inactive) | 38.5 µM (inactive) | 24 µM (inactive) | 20.1 µM (inactive) | 37.5 µM (inactive) | 18.5 µM (inactive) | 42.3 µM (inactive) | 37.6 µM (inactive) | 13 µM (inactive) | 24 µM (inactive) | 30.7 µM (inactive) | 41.3 µM (inactive) | 32.3 µM (inactive) | –
Nc1n[nH]c(CCCCCCCc2nnc(N)[nH]2)n1 | > 100 µM (inactive) | > 100 µM | > 100 µM (inactive) | > 100 µM (inactive) | > 100 µM (inactive) | – | > 100 µM (inactive) | > 100 µM (inactive) | – | > 100 µM (inactive) | – | > 100 µM (inactive) | > 100 µM (inactive) | > 100 µM (inactive) | > 100 µM (inactive) | > 100 µM (inactive) | > 100 µM (inactive) | > 100 µM (inactive) | > 100 µM (inactive) | –
C/C(=N\O)C1CC(CC(=O)O)C1(C)C (centres undefined) | > 100 µM (inactive) | > 100 µM | > 100 µM (inactive) | > 100 µM (inactive) | > 100 µM (inactive) | > 100 µM (inactive) | > 100 µM (inactive) | > 100 µM (inactive) | > 100 µM (inactive) | > 100 µM (inactive) | > 100 µM (inactive) | > 100 µM (inactive) | > 100 µM (inactive) | > 100 µM (inactive) | > 100 µM (inactive) | > 100 µM (inactive) | > 100 µM (inactive) | > 100 µM (inactive) | > 100 µM (inactive) | –
CCN1C(=O)C(=Cc2ccc(-c3ccccc3)cc2)C(=O)N(CC)C1=S | 97.3 µM (inactive) | > 100 µM | 35.5 µM (inactive) | 38.5 µM (inactive) | > 100 µM (inactive) | > 100 µM (inactive) | 30.3 µM (inactive) | > 100 µM (inactive) | > 100 µM (inactive) | > 100 µM (inactive) | > 100 µM (inactive) | > 100 µM (inactive) | > 100 µM (inactive) | > 100 µM (inactive) | – | 79.4 µM (inactive) | > 100 µM (inactive) | > 100 µM (inactive) | > 100 µM (inactive) | –
N=c1c2c(=S)n(-c3ccccc3)c(=S)n(-c3ccccc3)c2nc(SCCCN2CCN(c3cccc(Cl)c3)CC2)n1-c1ccccc1 | – | 59.2 µM | > 100 µM (inactive) | > 100 µM (inactive) | > 100 µM (inactive) | 22.8 µM (inactive) | > 100 µM (inactive) | > 100 µM (inactive) | 43.9 µM (inactive) | > 100 µM (inactive) | 45.4 µM (inactive) | 62.8 µM (inactive) | – | – | > 100 µM (inactive) | – | > 100 µM (inactive) | > 100 µM (inactive) | > 100 µM (inactive) | –
COc1cccc(NC(=O)CC(=O)n2nc(-c3ccccc3)c(/N=N/c3ccc(Cl)cc3)c2-c2ccccc2)c1 | 19.4 µM (inactive) | 11.5 µM | 6.43 µM (inactive) | 12.4 µM (inactive) | 31.7 µM (inactive) | 21.3 µM (inactive) | 9.84 µM (inactive) | 20 µM (inactive) | 27.9 µM (inactive) | 23 µM (inactive) | 12.9 µM (inactive) | 21.5 µM (inactive) | 18.6 µM (inactive) | 17.8 µM (inactive) | 11 µM (inactive) | 10.2 µM (inactive) | 36.4 µM (inactive) | 26.6 µM (inactive) | 5.33 µM (inactive) | –
CCOC(=O)/C=C1/Oc2ccccc2C1(C)O (centres undefined) | > 100 µM (inactive) | > 100 µM | > 100 µM (inactive) | > 100 µM (inactive) | > 100 µM (inactive) | – | > 100 µM (inactive) | > 100 µM (inactive) | – | 68.7 µM (inactive) | > 100 µM (inactive) | > 100 µM (inactive) | > 100 µM (inactive) | > 100 µM (inactive) | – | > 100 µM (inactive) | > 100 µM (inactive) | – | > 100 µM (inactive) | > 100 µM (inactive)
CN(C)C(=O)C1CCC(=C2C(=O)OC(C)(C)OC2=O)N1C (centres undefined) | > 100 µM (inactive) | > 100 µM | – | > 100 µM (inactive) | > 100 µM (inactive) | – | > 100 µM (inactive) | > 100 µM (inactive) | – | > 100 µM (inactive) | > 100 µM (inactive) | > 100 µM (inactive) | > 100 µM (inactive) | > 100 µM (inactive) | – | > 100 µM (inactive) | > 100 µM (inactive) | > 100 µM (inactive) | > 100 µM (inactive) | > 100 µM (inactive)
COC(=O)[C@@H](NC(=O)[C@H](N)Cc1ccc(N(CCCl)CCCl)cc1)C(C)C | 15 µM (inactive) | 18.4 µM | 1.32 µM (inactive) | 12.9 µM (inactive) | 25.1 µM (inactive) | 26.1 µM (inactive) | 0.0204 µM (active) | 3.66 µM (inactive) | 21.7 µM (inactive) | 12 µM (inactive) | 18.7 µM (inactive) | 28.9 µM (inactive) | 13.9 µM (inactive) | > 54.1 µM (inactive) | 0.53 µM (active) | 12 µM (inactive) | 13.1 µM (inactive) | 7.91 µM (inactive) | 32.7 µM (inactive) | –
CN(N)c1nc(N)c(C#N)c(C#N)c1C#N | > 10 µM (inactive) | > 10 µM | > 10 µM (inactive) | > 10 µM (inactive) | > 10 µM (inactive) | > 10 µM (inactive) | > 10 µM (inactive) | > 10 µM (inactive) | > 10 µM (inactive) | – | > 10 µM (inactive) | – | > 10 µM (inactive) | > 10 µM (inactive) | > 10 µM (inactive) | – | > 10 µM (inactive) | > 10 µM (inactive) | > 10 µM (inactive) | –
CC1(C)CC[C@]2(C)CC[C@]3(C)C(=CC[C@@H]4[C@@]5(C)CCC(=O)C(C)(C)[C@@H]5[C@H](O)C[C@]43C)[C@@H]2C1 | 16.3 µM (inactive) | 18.6 µM | 29.5 µM (inactive) | – | 19.5 µM (inactive) | 11.5 µM (inactive) | 31.5 µM (inactive) | 19.5 µM (inactive) | 17.1 µM (inactive) | 16.1 µM (inactive) | 17.6 µM (inactive) | 16 µM (inactive) | 15.1 µM (inactive) | 15.3 µM (inactive) | – | – | 18.1 µM (inactive) | 17.8 µM (inactive) | 17.6 µM (inactive) | –
C[Si](C)(C)OC1(C#N)c2ccccc2CCCC12CCCC2 (centres undefined) | 26.6 µM (inactive) | 39 µM | 17.8 µM (inactive) | 34.7 µM (inactive) | 42.8 µM (inactive) | 50.9 µM (inactive) | 23.1 µM (inactive) | 45.7 µM (inactive) | 41.1 µM (inactive) | 26.5 µM (inactive) | 34 µM (inactive) | 18.5 µM (inactive) | 59.4 µM (inactive) | 44 µM (inactive) | 29.6 µM (inactive) | 99.5 µM (inactive) | 80 µM (inactive) | 53.5 µM (inactive) | > 100 µM (inactive) | –
